Test results reported in patent US11427548B2 (Arvinas Operations, Inc., priority 2015, dated 2022).
Read-outs that look alike come from different tables or passages of the source.

How the values were obtained:
Androgen Receptor [1] = biological target: T1, Androgen Receptor (Homo sapiens, UniProt P10275); test: Androgen Receptor ELISA assay (PathScan AR ELISA) in VCaP cells: AR degradation, Dmax and DC50; format: cell-based
T1 construct: endogenous in cells; host or cells: VCaP cells
T1 sequence (P10275 1-920): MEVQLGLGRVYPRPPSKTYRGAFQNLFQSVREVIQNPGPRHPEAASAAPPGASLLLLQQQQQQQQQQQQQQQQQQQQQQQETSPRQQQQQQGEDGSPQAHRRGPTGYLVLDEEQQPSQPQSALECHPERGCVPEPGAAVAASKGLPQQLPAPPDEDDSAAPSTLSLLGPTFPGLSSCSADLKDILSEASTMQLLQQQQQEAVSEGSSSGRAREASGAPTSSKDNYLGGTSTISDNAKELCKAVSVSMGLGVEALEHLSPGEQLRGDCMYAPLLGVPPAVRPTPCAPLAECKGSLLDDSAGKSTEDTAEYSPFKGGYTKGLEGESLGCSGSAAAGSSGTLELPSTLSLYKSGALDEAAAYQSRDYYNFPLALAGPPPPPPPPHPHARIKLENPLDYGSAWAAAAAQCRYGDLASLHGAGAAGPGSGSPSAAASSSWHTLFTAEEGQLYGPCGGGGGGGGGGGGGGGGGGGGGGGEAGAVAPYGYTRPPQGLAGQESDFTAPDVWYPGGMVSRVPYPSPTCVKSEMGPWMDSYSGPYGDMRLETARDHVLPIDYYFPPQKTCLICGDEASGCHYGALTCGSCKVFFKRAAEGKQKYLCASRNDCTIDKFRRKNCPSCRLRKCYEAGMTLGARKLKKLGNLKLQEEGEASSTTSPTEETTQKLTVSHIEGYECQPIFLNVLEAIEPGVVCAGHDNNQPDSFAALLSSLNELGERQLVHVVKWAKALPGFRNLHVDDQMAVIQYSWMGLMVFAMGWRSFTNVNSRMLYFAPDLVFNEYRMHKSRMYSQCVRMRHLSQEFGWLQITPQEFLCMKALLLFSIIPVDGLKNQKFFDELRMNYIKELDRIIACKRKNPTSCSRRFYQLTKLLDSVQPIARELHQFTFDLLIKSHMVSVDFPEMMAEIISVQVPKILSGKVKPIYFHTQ
Method in brief: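 VCaP cells, 30,000/well, grown ≥3 days in phenol red-free RPMI with 5% charcoal-stripped FBS; compound added in 0.1% DMSO with 0.1 nM R1881, 7 half-log doses, 24 h. Lysate AR quantified by PathScan sandwich ELISA, HRP/TMB read at 450 nm, giving DC50 and Dmax.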

Androgen Receptor [2] = biological target: T2, Androgen Receptor (Homo sapiens, UniProt P10275+P40337, T878A); test: Androgen Receptor ELISA assay (PathScan AR ELISA) in LNCaP cells: AR degradation, Dmax and DC50; format: cell-based; details: for DC50: concentration that caused 50% Androgen Receptor degradation
T2 construct: Compounds have been evaluated in this assay in LNCaP and/or VCaP cells utilizing similar protocols; endogenous in cells; host or cells: LNCaP cells

[3] = read-out: VCaP DC50; VCaP cells; concentration that caused 50% Androgen Receptor degradation
[4] = highest percentage of Androgen Receptor degradation
[5] = read-out: VCaP DC50; concentration that caused 50% Androgen Receptor degradation, VCaP cells
[6] = highest percentage of Androgen Receptor degradation observed

T2 sequence (P10275 whole entry T878A): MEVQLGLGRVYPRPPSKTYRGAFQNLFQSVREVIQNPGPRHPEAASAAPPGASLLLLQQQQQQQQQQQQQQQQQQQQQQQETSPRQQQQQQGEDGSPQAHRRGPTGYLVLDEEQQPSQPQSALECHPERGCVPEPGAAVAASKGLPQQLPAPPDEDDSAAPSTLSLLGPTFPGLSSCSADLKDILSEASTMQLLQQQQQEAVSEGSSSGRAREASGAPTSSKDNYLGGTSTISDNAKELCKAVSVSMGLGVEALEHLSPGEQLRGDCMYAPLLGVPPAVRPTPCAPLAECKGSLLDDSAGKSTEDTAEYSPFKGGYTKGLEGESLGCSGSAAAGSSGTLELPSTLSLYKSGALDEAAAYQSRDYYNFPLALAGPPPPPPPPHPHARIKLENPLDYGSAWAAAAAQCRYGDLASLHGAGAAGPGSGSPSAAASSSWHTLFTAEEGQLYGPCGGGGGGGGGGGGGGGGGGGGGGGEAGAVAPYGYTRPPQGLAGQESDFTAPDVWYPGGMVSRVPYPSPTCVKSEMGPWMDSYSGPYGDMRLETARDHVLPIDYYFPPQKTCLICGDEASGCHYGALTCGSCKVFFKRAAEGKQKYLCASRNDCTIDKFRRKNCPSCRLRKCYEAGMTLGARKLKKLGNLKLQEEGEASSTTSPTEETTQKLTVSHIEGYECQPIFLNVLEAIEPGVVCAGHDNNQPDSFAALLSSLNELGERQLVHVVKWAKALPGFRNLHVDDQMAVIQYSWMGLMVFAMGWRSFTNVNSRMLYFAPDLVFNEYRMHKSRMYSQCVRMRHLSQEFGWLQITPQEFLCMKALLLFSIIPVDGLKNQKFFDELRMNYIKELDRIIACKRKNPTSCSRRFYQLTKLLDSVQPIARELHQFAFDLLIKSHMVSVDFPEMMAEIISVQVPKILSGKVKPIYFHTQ
T2 sequence (P40337 whole entry): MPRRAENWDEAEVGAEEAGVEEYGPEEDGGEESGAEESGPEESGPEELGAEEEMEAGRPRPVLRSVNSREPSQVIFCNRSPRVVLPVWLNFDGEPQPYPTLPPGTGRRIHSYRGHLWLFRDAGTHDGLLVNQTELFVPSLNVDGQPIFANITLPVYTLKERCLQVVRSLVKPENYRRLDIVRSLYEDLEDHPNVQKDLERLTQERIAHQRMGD
T2 sequence (Q15369 whole entry partner): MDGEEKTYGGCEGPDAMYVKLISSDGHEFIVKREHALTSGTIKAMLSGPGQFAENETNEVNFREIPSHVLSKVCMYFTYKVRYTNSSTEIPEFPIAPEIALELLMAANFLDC
T2 sequence (Q15370 whole entry partner): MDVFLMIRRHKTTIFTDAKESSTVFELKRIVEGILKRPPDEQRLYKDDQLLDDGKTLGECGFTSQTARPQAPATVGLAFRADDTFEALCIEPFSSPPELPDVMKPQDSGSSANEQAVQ

| Compound | Dmax (Androgen Receptor [1]; VCaP, read-out: VCaP Dmax (%)) [%] | DC50 (Androgen Receptor [1]; [3]) [nM] | DC50 (Androgen Receptor [2]) [nM] | Dmax (Androgen Receptor [2]; [4]) [%] | DC50 (Androgen Receptor [1]; [5]) [nM] | Dmax (Androgen Receptor [2]; [6]) [%] |
| --- | --- | --- | --- | --- | --- | --- |
| Cc1ncsc1-c1ccc(CNC(=O)[C@@H]2C[C@@H](O)CN2C(=O)[C@@H](NC(=O)CCc2ccc(OCCCOc3ccc(N4C(=S)N(c5ccc(C#N)c(C(F)(F)F)c5)C(=O)C4(C)C)cc3)cc2)C(C)(C)C)cc1 [Example 292] | 26 to 50 | 51 to 500 | 51 to 500 | 51 to 70 | – | – |
| Cc1ncsc1-c1ccc(CNC(=O)[C@@H]2C[C@@H](O)CN2C(=O)[C@@H](NC(=O)COCCCOCCCCOc2ccc(N3C(=S)N(c4ccc(C#N)c(C(F)(F)F)c4)C(=O)C3(C)C)cc2)C(C)(C)C)cc1 [Example 28, (2S,4R)-1-[(2S)-2-(2-{3-[4-(4-{3-[4-cyano-3-(trifluoromethyl)phenyl]-5,5-dimethyl-4-oxo-2-sulfanylideneimidazolidin-1-yl}phenoxy)butoxy]propoxy}acetamido)-3,3-dimethylbutanoyl]-4-hydroxy-N-{[4-(4-methyl-1,3-thiazol-5-yl)phenyl]methyl}pyrrolidine-2-carboxamide] | 51 to 70 | – | < 50 | – | < 50 | > 71 |
| Cc1ncsc1-c1ccc(CNC(=O)[C@@H]2C[C@@H](O)CN2C(=O)[C@@H](NC(=O)CCCOCC#CC#CCOc2ccc(N3C(=S)N(c4ccc(C#N)c(C(F)(F)F)c4)C(=O)C3(C)C)cc2)C(C)(C)C)cc1 [Example 56, (2S,4R)-1-[(2S)-2-(4-{[6-(4-{3-[4-cyano-3-(trifluoromethyl)phenyl]-5,5-dimethyl-4-oxo-2-sulfanylideneimidazolidin-1-yl}phenoxy)hexa-2,4-diyn-1-yl]oxy}butanamido)-3,3-dimethylbutanoyl]-4-hydroxy-N-{[4-(4-methyl-1,3-thiazol-5-yl)phenyl]methyl}pyrrolidine-2-carboxamide] | < 25 | – | > 501 | – | – | 26 to 50 |
| Cc1ncsc1-c1ccc(CNC(=O)[C@@H]2C[C@@H](O)CN2C(=O)[C@@H](NC(=O)COCCCOCCCCOc2ccc(N3C(=S)N(c4ccc(C#N)c(Cl)c4)C(=O)C3(C)C)cc2)C(C)(C)C)cc1 [Example 31, (2S,4R)-1-[(2S)-2-{2-[3-(4-{4-[3-(3-chloro-4-cyanophenyl)-5,5-dimethyl-4-oxo-2-sulfanylideneimidazolidin-1-yl]phenoxy}butoxy)propoxy]acetamido}-3,3-dimethylbutanoyl]-4-hydroxy-N-{[4-(4-methyl-1,3-thiazol-5-yl)phenyl]methyl}pyrrolidine-2-carboxamide] | > 71 | – | < 50 | – | < 50 | > 71 |
| Cc1ncsc1-c1ccc(CNC(=O)[C@@H]2C[C@@H](O)CN2C(=O)[C@@H](NC(=O)COCCCCCOC2CCN(C(=O)c3ccc(N4C(=S)N(c5ccc(C#N)c(C(F)(F)F)c5)C(=O)C4(C)C)cc3)CC2)C(C)(C)C)cc1 [Example 294] | 26 to 50 | 51 to 500 | 51 to 500 | 26 to 50 | – | – |
| Cc1ncsc1-c1ccc(CNC(=O)[C@@H]2C[C@@H](O)CN2C(=O)[C@@H](NC(=O)CO[C@H](C)[C@@H](C)OCCOCCOc2ccc(N3C(=S)N(c4ccc(C#N)c(C(F)(F)F)c4)C(=O)C3(C)C)cc2)C(C)(C)C)cc1 [Example 22, (2S,4R)-1-[(2S)-2-(2-{[(2R,3R)-3-{2-[2-(4-{3-[4-cyano-3-(trifluoromethyl)phenyl]-5,5-dimethyl-4-oxo-2-sulfanylideneimidazolidin-1-yl}phenoxy)ethoxy]ethoxy}butan-2-yl]oxy}acetamido)-3,3-dimethylbutanoyl]-4-hydroxy-N-{[4-(4-methyl-1,3-thiazol-5-yl)phenyl]methyl}pyrrolidine-2-carboxamide] | 26 to 50 | – | < 50 | – | 51 to 500 | 51 to 70 |
| Cc1ncsc1-c1ccc(CNC(=O)[C@@H]2C[C@@H](O)CN2C(=O)[C@@H](NC(=O)CCOCC#CC#CCOc2ccc(N3C(=S)N(c4ccc(C#N)c(C(F)(F)F)c4)C(=O)C3(C)C)cc2)C(C)(C)C)cc1 [Example 55, (2S,4R)-1-[(2S)-2-(3-{[6-(4-{3-[4-cyano-3-(trifluoromethyl)phenyl]-5,5-dimethyl-4-oxo-2-sulfanylideneimidazolidin-1-yl}phenoxy)hexa-2,4-diyn-1-yl]oxy}propanamido)-3,3-dimethylbutanoyl]-4-hydroxy-N-{[4-(4-methyl-1,3-thiazol-5-yl)phenyl]methyl}pyrrolidine-2-carboxamide] | 51 to 70 | – | > 501 | – | – | 26 to 50 |
| Cc1ncsc1-c1ccc(CNC(=O)[C@@H]2C[C@@H](O)CN2C(=O)[C@@H](NC(=O)CCOc2ccc(CCOc3ccc(N4C(=S)N(c5ccc(C#N)c(C(F)(F)F)c5)C(=O)C4(C)C)cc3)cc2)C(C)(C)C)cc1 [Example 306] | 51 to 70 | – | < 50 | > 71 | – | – |
| Cc1ncsc1-c1ccc(CNC(=O)[C@@H]2C[C@@H](O)CN2C(=O)[C@@H](NC(=O)CCOCCOc2ccc(-c3ccc(N4C(=S)N(c5ccc(C#N)c(C(F)(F)F)c5)C(=O)C4(C)C)cc3)cc2)C(C)(C)C)cc1 [Example 70, (2S,4R)-1-[(2S)-2-(3-{2-[4-(4-{3-[4-cyano-3-(trifluoromethyl)phenyl]-5,5-dimethyl-4-oxo-2-sulfanylideneimidazolidin-1-yl}phenyl)phenoxy]ethoxy}propanamido)-3,3-dimethylbutanoyl]-4-hydroxy-N-{[4-(4-methyl-1,3-thiazol-5-yl)phenyl]methyl}pyrrolidine-2-carboxamide] | 26 to 50 | – | < 50 | – | < 50 | > 71 |
| Cc1ncsc1-c1ccc(CNC(=O)[C@@H]2C[C@@H](O)CN2C(=O)[C@@H](NC(=O)C(C)(C)C(O)CCCOCCCCCOc2ccc(N3C(=S)N(c4ccc(C#N)c(C(F)(F)F)c4)C(=O)C3(C)C)cc2)C(C)(C)C)cc1 (stereo partly drawn) [Example 310] | < 25 | – | > 501 | 26 to 50 | – | – |
| Cc1ncsc1-c1ccc(CNC(=O)[C@@H]2C[C@@H](O)CN2C(=O)[C@@H](NC(=O)CCCOCCCOCCCOc2ccc(N3C(=S)N(c4ccc(C#N)c(C(F)(F)F)c4)C(=O)C3(C)C)cc2)C(C)(C)C)cc1 [Example 301] | 51 to 70 | – | < 50 | 51 to 70 | – | – |
| Cc1ncsc1-c1ccc(CNC(=O)[C@@H]2C[C@@H](O)CN2C(=O)[C@@H](NC(=O)OCCCCCOc2ccc(-c3ccc(N4C(=S)N(c5ccc(C#N)c(C(F)(F)F)c5)C(=O)C4(C)C)cc3)cc2)C(C)(C)C)cc1 [Example 74, 5-[4-(4-{3-[4-cyano-3-(trifluoromethyl)phenyl]-5,5-dimethyl-4-oxo-2-sulfanylideneimidazolidin-1-yl}phenyl)phenoxy]pentyl N-[(2S)-1-[(2S,4R)-4-hydroxy-2-({[4-(4-methyl-1,3-thiazol-5-yl)phenyl]methyl}carbamoyl)pyrrolidin-1-yl]-3,3-dimethyl-1-oxobutan-2-yl]carbamate] | 26 to 50 | – | < 50 | – | < 50 | > 71 |
| Cc1ncsc1-c1ccc(CNC(=O)[C@@H]2C[C@@H](O)CN2C(=O)[C@@H](NC(=O)CCCOCCOCCCOc2ccc(N3C(=S)N(c4ccc(C#N)c(C(F)(F)F)c4)C(=O)C3(C)C)cc2)C(C)(C)C)cc1 [Example 300] | 51 to 70 | < 50 | < 50 | 51 to 70 | – | – |
| Cc1ncsc1-c1ccc(CNC(=O)[C@@H]2C[C@@H](O)CN2C(=O)[C@@H](NC(=O)COCCCOCCCCOc2ccc(CN3C(=S)N(c4ccc(C#N)c(C(F)(F)F)c4)C(=O)C3(C)C)cc2)C(C)(C)C)cc1 [Example 308] | 51 to 70 | < 50 | 51 to 500 | 51 to 70 | – | – |
